Measurements from ChEMBL document CHEMBL4825693, “Discovery of novel N-sulfonamide-tetrahydroisoquinolines as potent retinoic acid receptor-related orphan receptor γt agonists” (Eur J Med Chem, 2021).

Key:
[1] = biological target: T1, Nuclear receptor ROR-gamma (Homo sapiens, UniProt P51449); assay: Agonist activity at europium-labeled human RORgammat LBD assessed as induction of XL665-labeled co-activator SRC1 recruitment incubated for 1 hr by dual FRET assay
T1 sequence (P51449 whole entry): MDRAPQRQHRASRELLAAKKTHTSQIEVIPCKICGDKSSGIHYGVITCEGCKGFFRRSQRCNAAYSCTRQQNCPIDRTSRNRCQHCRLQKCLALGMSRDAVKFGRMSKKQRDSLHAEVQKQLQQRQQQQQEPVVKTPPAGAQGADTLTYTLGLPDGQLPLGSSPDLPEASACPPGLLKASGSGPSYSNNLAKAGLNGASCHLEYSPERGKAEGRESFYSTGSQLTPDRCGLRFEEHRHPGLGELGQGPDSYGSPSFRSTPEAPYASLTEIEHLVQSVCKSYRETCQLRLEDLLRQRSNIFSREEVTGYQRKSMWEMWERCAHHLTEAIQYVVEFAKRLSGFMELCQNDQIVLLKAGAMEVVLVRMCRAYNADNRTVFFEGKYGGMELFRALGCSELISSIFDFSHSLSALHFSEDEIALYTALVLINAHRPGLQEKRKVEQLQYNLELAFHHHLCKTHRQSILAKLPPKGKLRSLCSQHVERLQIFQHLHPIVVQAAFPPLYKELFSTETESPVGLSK

[2] = biological target: T1, Nuclear receptor ROR-gamma; assay: Agonist activity at human RORgammat LBD expressed in HEK293T cells incubated for 16 to 20 hrs by Gal4-luciferase reporter gene assay; format: cell-based
[3] = biological target: T2, Nuclear receptor ROR-gamma (Mus musculus) (UniProt P51450); assay: Agonist activity at RORgammat in C57 mouse CD4+ T cells assessed as induction of Th17 cells differentiation by measuring increase in IL17 production measured after 4 days by flow cytometry analysis relative to control; format: cell-based; conditions: CD4+ve Th, filed as agonist, time 4.0 day
T2 sequence (whole entry): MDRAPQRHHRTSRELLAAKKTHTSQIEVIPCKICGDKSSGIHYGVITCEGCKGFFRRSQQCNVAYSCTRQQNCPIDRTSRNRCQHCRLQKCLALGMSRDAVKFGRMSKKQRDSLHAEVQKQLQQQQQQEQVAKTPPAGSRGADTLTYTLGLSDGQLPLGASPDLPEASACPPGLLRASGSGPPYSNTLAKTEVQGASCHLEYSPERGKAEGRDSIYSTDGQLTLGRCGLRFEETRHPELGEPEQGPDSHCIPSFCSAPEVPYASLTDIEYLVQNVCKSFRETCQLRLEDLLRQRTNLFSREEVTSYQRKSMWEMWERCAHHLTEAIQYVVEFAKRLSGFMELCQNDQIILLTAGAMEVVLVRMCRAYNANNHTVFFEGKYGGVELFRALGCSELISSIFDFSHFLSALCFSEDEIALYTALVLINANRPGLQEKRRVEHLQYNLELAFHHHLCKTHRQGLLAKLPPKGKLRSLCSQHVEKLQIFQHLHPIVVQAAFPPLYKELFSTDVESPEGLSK

[4] = biological target: T3, Nuclear receptor ROR-gamma (Homo sapiens) (UniProt P51449); assay: Inverse agonist activity at europium-labeled human RORgammat LBD assessed as inhibition of XL665-labeled co-activator SRC1 recruitment incubated for 1 hr by dual FRET assay relative to control; conditions: concentration not given here
T3 sequence (whole entry): T1 sequence (P51449 whole entry)

[5] = biological target: T1, Nuclear receptor ROR-gamma; assay: Inverse agonist activity at europium-labeled human RORgammat LBD assessed as inhibition of XL665-labeled co-activator SRC1 recruitment incubated for 1 hr by dual FRET assay

Compound | EC50 [1] [nM] | other results
CC(=O)N1CCN(c2ccc3c(c2)CCN(S(=O)(=O)N(C)c2nccc(C(F)(F)F)n2)C3)CC1 | 6240 | 
CC(=O)N1CCN(c2ccc3c(c2)CCN(S(=O)(=O)N(C)CCc2ccccc2)C3)CC1 | 2230 | 
CC(=O)N1CCN(c2ccc3c(c2)CCN(S(=O)(=O)N(C)CCCc2ccccc2)C3)CC1 | 570 | 
CC(=O)N1CCN(c2ccc3c(c2)CCN(S(=O)(=O)N(C)Cc2ccc(C(F)(F)F)cc2)C3)CC1 |  | inhibition [4]: 25.8%; EC50 [5]: 1980 nM
CC(=O)N1CCN(c2ccc3c(c2)CCN(S(=O)(=O)N(C)Cc2ccccc2)C3)CC1 | 560 | 
CC(=O)N1CCN(c2ccc3c(c2)CCN(S(=O)(=O)N(C)Cc2ccccn2)C3)CC1 | 12300 | 
CC(=O)N1CCN(c2ccc3c(c2)CCCN3S(=O)(=O)N(C)Cc2ccccc2Cl)CC1 |  | IC50 [5]: 167 nM

Second part, led by results:

EC50 [1] [nM] | Compound | other results
23 | CC(=O)N1CCN(c2ccc3c(c2)CCN(S(=O)(=O)N(C)Cc2c(F)cccc2Cl)C3)[C@H](C)C1 | 
148 | CC(=O)N1CCN(c2ccc3c(c2)CCN(S(=O)(=O)N(C)Cc2cc(F)ccc2F)C3)CC1 | 
21 | CC(=O)N1CCN(c2ccc3c(c2)CCN(S(=O)(=O)N(C)Cc2c(F)cccc2Cl)C3)CC1 | EC50 [2]: 190 nM; max activation [3]: 167%
215 | CC(=O)N1CCN(c2ccc3c(c2)CCN(S(=O)(=O)N(C)Cc2cccc(C)c2)C3)CC1 | 
138 | CC(=O)N1CCN(c2ccc3c(c2)CCN(S(=O)(=O)N(C)Cc2cccc(Cl)c2)C3)CC1 | 
358 | CC(=O)N1CCN(c2ccc3c(c2)CCN(S(=O)(=O)N(C)Cc2ccccc2F)C3)CC1 | 
546 | CC(=O)N1CCN(c2ccc3c(c2)CCN(S(=O)(=O)N(C)Cc2cccc(F)c2)C3)CC1 | 
982 | CC(=O)N1CCN(c2ccc3c(c2)CCN(S(=O)(=O)N(C)Cc2ccccc2Cl)C3)CC1 | EC50 [2]: 740 nM; max activation [3]: 93%
221 | CC(=O)N1CCN(c2ccc3c(c2)CCN(S(=O)(=O)N(C)Cc2ccccc2C)C3)CC1 | 
1020 | CC(=O)N1CCN(c2ccc3c(c2)CCN(S(=O)(=O)N(C)Cc2ccc(F)cc2)C3)CC1 | 
